# Source: ChEMBL document CHEMBL1144945, “Development of progesterone receptor antagonists from 1,2-dihydrochromeno[3,4-f]quinoline agonist pharmacophore” (Bioorg Med Chem Lett, 2003)
# Activity calls are given as the source filed them.
# Assays:
# [1] = molecular target: T1, Mineralocorticoid receptor (Homo sapiens) (UniProt P08235); assay: Antagonist efficacy for mineralocorticoid receptor (hMR); Not active; assay type: functional
# T1 sequence (whole entry): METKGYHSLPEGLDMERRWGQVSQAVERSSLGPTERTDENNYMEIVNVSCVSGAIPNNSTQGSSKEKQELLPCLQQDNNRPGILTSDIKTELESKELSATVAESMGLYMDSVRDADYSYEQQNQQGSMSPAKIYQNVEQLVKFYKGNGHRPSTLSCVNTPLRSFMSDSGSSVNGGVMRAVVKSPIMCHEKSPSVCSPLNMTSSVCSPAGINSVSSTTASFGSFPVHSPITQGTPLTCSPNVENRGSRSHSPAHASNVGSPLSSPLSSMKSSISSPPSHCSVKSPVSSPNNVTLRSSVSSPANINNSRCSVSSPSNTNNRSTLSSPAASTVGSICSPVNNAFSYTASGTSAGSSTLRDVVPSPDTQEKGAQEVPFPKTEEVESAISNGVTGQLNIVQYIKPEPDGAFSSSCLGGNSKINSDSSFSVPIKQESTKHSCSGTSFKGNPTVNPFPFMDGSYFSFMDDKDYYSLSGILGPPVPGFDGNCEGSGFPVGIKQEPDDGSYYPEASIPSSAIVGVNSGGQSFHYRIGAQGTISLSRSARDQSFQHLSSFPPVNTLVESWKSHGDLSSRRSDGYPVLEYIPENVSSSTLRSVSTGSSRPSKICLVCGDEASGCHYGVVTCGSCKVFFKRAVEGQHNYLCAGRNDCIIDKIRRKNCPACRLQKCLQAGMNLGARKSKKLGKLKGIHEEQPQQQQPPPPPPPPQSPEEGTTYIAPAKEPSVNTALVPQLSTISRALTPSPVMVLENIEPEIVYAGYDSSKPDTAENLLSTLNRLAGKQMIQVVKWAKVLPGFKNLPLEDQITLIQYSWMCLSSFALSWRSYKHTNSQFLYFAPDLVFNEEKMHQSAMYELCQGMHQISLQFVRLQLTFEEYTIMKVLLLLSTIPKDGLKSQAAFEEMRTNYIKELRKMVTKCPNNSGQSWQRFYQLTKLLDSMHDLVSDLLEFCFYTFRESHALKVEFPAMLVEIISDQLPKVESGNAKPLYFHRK
# [2] = molecular target: T2, Androgen receptor (Homo sapiens, UniProt P10275)
# T2 sequence (P10275 whole entry): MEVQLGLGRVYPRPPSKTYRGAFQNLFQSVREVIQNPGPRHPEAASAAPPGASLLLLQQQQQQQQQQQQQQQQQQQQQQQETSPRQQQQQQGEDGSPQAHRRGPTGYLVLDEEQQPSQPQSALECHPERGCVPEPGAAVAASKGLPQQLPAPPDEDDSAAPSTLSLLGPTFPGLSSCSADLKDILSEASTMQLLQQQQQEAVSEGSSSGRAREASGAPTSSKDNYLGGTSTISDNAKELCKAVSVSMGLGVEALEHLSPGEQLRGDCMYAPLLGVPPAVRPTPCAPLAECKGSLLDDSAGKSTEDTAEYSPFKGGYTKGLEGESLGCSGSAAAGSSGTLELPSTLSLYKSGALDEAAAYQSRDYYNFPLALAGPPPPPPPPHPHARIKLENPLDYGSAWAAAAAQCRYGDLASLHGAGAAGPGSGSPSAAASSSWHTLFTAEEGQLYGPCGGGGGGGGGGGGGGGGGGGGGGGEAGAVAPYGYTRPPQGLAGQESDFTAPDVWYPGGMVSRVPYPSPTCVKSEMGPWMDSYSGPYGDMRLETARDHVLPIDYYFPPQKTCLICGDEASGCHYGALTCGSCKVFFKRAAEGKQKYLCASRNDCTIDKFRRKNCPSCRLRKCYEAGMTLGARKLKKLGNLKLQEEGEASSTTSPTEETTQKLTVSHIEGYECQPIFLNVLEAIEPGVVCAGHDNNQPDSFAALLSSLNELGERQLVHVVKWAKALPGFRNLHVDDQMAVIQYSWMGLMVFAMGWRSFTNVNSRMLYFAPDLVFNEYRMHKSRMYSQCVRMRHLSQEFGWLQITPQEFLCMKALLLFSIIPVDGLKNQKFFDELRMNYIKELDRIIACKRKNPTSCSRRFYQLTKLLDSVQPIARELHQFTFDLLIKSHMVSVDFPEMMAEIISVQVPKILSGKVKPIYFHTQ
# Description: Inhibition of antagonist activity towards Androgen receptor
# [3] = molecular target: T3, Mineralocorticoid receptor (Homo sapiens, UniProt P08235); assay: Inhibition of antagonist activity towards mineralocorticoid receptor (hMR); Not active; assay type: functional
# T3 sequence (P08235 whole entry): T1 sequence (whole entry)
# [4] = molecular target: T4, Glucocorticoid receptor (Homo sapiens) (UniProt P04150); assay: Antagonist efficacy for glucocorticoid receptor; not active; assay type: functional
# T4 sequence (whole entry): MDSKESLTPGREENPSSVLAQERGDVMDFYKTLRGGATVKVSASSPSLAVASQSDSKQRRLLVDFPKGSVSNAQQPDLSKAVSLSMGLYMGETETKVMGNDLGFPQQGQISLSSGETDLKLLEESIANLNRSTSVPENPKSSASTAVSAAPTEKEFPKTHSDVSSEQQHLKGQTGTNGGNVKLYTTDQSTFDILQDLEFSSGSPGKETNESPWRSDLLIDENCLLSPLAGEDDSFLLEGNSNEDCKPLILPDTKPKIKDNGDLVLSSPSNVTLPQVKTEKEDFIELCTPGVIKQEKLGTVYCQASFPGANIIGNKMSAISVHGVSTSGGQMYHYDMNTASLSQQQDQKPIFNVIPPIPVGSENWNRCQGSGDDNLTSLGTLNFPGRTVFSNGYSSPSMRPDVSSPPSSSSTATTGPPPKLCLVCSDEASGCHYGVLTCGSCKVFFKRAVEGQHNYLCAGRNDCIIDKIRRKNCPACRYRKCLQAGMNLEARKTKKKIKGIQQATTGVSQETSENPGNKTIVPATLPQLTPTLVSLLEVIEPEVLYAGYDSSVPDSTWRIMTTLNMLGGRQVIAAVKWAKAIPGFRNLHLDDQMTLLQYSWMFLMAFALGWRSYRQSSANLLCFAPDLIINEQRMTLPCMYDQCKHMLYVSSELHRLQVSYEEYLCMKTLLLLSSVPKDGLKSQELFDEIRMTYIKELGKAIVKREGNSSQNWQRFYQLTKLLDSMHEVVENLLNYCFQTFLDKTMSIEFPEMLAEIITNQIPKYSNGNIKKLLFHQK
# [5] = molecular target: Estrogen receptor (Homo sapiens) (UniProt Q92731+P03372); assay: Antagonist efficacy for Estrogen receptor; Not active; assay type: functional
# [6] = molecular target: T5, Glucocorticoid receptor (Homo sapiens, UniProt P04150); assay: Inhibition of antagonist activity towards glucocorticoid receptor; not active; assay type: functional
# T5 sequence (P04150 whole entry): T4 sequence (whole entry)
# [7] = molecular target: T6, Progesterone receptor (Homo sapiens, UniProt P06401)
# T6 sequence (P06401 whole entry): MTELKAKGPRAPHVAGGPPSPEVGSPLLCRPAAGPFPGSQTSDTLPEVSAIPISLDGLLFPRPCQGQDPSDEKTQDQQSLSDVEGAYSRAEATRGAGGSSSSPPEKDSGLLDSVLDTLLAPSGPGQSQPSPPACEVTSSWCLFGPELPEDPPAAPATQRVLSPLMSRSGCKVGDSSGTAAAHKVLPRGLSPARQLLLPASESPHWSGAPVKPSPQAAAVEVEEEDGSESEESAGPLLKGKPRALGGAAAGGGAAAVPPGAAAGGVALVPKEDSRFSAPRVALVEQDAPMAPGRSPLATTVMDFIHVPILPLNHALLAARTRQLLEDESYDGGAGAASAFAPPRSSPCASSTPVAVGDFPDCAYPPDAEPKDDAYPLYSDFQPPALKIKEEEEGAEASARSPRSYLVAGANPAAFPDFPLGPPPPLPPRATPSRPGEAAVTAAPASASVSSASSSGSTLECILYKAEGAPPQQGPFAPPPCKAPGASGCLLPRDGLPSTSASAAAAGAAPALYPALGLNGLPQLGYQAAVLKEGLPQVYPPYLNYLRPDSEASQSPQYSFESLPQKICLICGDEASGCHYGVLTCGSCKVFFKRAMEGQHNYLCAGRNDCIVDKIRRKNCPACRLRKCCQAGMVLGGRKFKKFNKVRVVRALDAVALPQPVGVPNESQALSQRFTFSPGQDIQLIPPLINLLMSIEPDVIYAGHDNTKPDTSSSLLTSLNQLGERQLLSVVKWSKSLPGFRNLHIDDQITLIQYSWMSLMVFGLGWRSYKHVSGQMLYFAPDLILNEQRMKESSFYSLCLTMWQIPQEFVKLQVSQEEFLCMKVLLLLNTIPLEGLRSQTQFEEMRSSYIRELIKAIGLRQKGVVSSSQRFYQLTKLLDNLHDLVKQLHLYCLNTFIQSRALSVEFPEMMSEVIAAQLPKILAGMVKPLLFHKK
# Description: Binding affinity at human progesterone receptor.
# [8] = molecular target: T6, Progesterone receptor; remark: listed apart in the source
# Description: Antagonistic activity at human progesterone receptor in CV-1 cells.
# [9] = molecular target: T6, Progesterone receptor; remark: listed apart in the source
# Description: Inhibition of human progesterone receptor activation in T47D human breast cancer cell.
# [10] = molecular target: T6, Progesterone receptor; remark: listed apart in the source
# [11] = molecular target: T5, Glucocorticoid receptor; assay: Inhibition of antagonist activity towards glucocorticoid receptor; assay type: functional
# [12] = molecular target: T6, Progesterone receptor; assay: Effective concentration for antagonistic activity towards human progesterone in CV-1 cells; assay type: functional, cell-based
# [13] = molecular target: T6, Progesterone receptor; assay: Binding towards human progesterone receptor
# [14] = molecular target: T7, Progesterone receptor (Homo sapiens) (UniProt P06401); assay: Antagonist efficacy for human progesterone in CV-1 cells; assay type: functional, cell-based
# T7 sequence (whole entry): T6 sequence (P06401 whole entry)
# [15] = molecular target: T7, Progesterone receptor (Homo sapiens); assay: Agonist efficacy for human progesterone receptor in T47D human breast cancer cell; not active (<20% efficacy and/or >10 mM potency); assay type: functional, cell-based
# [16] = molecular target: T7, Progesterone receptor (Homo sapiens); assay: Effective concentration against human progesterone receptor in T47D human breast cancer cell; not active (<20% efficacy and/or >10 mM potency); assay type: cell-based; settings: Cancer cell lines
# [17] = molecular target: T3, Mineralocorticoid receptor; assay: Inhibition of antagonist activity towards mineralocorticoid receptor (hMR); assay type: functional
# [18] = molecular target: T1, Mineralocorticoid receptor (Homo sapiens); assay: Antagonist efficacy for mineralocorticoid receptor (hMR); assay type: functional
# [19] = molecular target: T6, Progesterone receptor; assay: Effective concentration for human progesterone receptor in T47D human breast cancer cell; not active (<20% efficacy and/or >10 mM potency); settings: cancer cell lines
SMILES,IC50 [2],Efficacy [5],Ki [7],EC50 [8],IC50 [9],EC50 [10],other results
CC1=CC(C)(C)Nc2ccc3c(c21)COc1ccc(Cl)cc1-3,788 nM,inactive,,,,,Efficacy [1]: inactive; IC50 [3]: Not Active; Efficacy [4]: inactive; IC50 [6]: Not Active
COc1cc(Br)cc2c1OCc1c-2ccc2c1C(C)=CC(C)(C)N2,,,476 nM,43 nM,,,
CC1=CC(C)(C)Nc2ccc3c(c21)COc1c(C)cc(Cl)cc1-3,,,205 nM,178 nM,374 nM,,
CC1=CC(C)(C)Nc2ccc3c(c21)COc1ccc(Br)cc1-3,395 nM,inactive,15 nM,45 nM,485 nM,552 nM,Efficacy [1]: inactive; IC50 [3]: Not Active; IC50 [11]: 1930 nM
CC1=CC(C)(C)Nc2ccc3c(c21)COc1c(Br)cc(Br)cc1-3,,,,,,,EC50 [12]: 1870 nM; Ki [13]: > 1000 nM; Efficacy [14]: 86%
Cc1cc(F)cc2c1OCc1c-2ccc2c1C(C)CC(C)(C)N2 (stereo not drawn),,,391 nM,637 nM,499 nM,,Activity [15]: inactive; Activity [16]: inactive
CC1=CC(C)(C)Nc2ccc3c(c21)COc1ccc([N+](=O)[O-])cc1-3,60 nM,inactive,6.8 nM,28.6 nM,152 nM,257 nM,IC50 [17]: 1890 nM; Efficacy [18]: 79%; IC50 [11]: 689 nM
CC1=CC(C)(C)Nc2ccc3c(c21)COc1ccc(-c2ccccc2)cc1-3,,,> 1000 nM,2030 nM,811 nM,,Efficacy [15]: inactive; EC50 [19]: Not Active
CC1CC(C)(C)Nc2ccc3c(c21)COc1c-3cc(F)cc1[N+](=O)[O-] (stereo not drawn),,,370 nM,781 nM,483 nM,,Activity [15]: inactive; Activity [16]: inactive
CC1=CC(C)(C)Nc2ccc3c(c21)COc1c(F)cccc1-3,,,248 nM,118 nM,368 nM,> 1000 nM,
CC1=CC(C)(C)Nc2ccc3c(c21)COc1c(F)cc(C#N)cc1-3,60 nM,inactive,4.5 nM,16.7 nM,149 nM,86 nM,Efficacy [1]: inactive; IC50 [3]: Not Active; IC50 [11]: 194 nM
CN(C)c1ccc([C@H]2C[C@]3(C)[C@@H](CC[C@]3(O)CCCO)[C@@H]3CCC4=CC(=O)CCC4=C32)cc1 [ONAPRISTONE],,,,,,,Activity [15]: inactive; IC50 [17]: 470 nM; Efficacy [18]: 49%; Activity [16]: inactive
COc1ccc2c(c1)-c1ccc3c(c1CO2)C(C)=CC(C)(C)N3,,,86 nM,170 nM,187 nM,> 1000 nM,
